Source: PubChem BioAssay (NCI)
Where “and” joins values, the source holds several entries; their conditions need not be identical. Equal entries are not always repeated.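 Briefly, cells in 96-well plates were exposed to five compound concentrations for 48 h, and endpoints were estimated by linear interpolation. GI50: concentration for 50% inhibition of growth. At the TGI there is no net growth.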

Columns and labels:
Test in all cases: growth of human tumour cells (NCI), 48 h
OVCAR-5 ovarian = tested on: OVCAR-5 ovarian
HOP-62 NSCLC = tested on: HOP-62 NSCLC
MOLT-4 leukemia = tested on: MOLT-4 leukemia
NCI-H460 lung = tested on: NCI-H460 lung
SN12C renal = tested on: SN12C renal
CAKI-1 renal = tested on: CAKI-1 renal
RPMI-8226 leukemia = tested on: RPMI-8226 leukemia
BT-549 breast = tested on: BT-549 breast
PC-3 prostate = tested on: PC-3 prostate
SK-MEL-2 melanoma = tested on: SK-MEL-2 melanoma

O=C1OCC2=C1C(c1cccc(C(F)(F)F)c1)c1cc3c(cc1N2CCO)CCC3 (configuration not stated)
GI50 (OVCAR-5 ovarian): 0.265 µM
TGI (OVCAR-5 ovarian): 8.97 µM
GI50 (HOP-62 NSCLC): 0.178 µM
TGI (HOP-62 NSCLC): 7.74 µM
GI50 (MOLT-4 leukemia): 0.27 µM
TGI (MOLT-4 leukemia): 15.5 µM
GI50 (NCI-H460 lung): 0.167 µM
TGI (NCI-H460 lung): 5.4 µM
GI50 (SN12C renal): 0.309 µM
TGI (SN12C renal): 7.76 µM
GI50 (CAKI-1 renal): 174 nM
TGI (CAKI-1 renal): 7.46 µM
GI50 (RPMI-8226 leukemia): 239 nM
TGI (RPMI-8226 leukemia): 12.8 µM
GI50 (BT-549 breast): 0.219 µM
TGI (BT-549 breast): 5.32 µM
GI50 (PC-3 prostate): 194 nM
TGI (PC-3 prostate): 7.56 µM
GI50 (SK-MEL-2 melanoma): 0.34 µM
TGI (SK-MEL-2 melanoma): 10.6 µM

CCOC(=O)/C(=C\c1ccc(F)cc1)C(C)=O
TGI (OVCAR-5 ovarian): > 100 µM
TGI (HOP-62 NSCLC): > 100 µM
TGI (MOLT-4 leukemia): 89 µM
TGI (NCI-H460 lung): 97.4 µM
TGI (SN12C renal): > 100 µM
TGI (CAKI-1 renal): > 100 µM
TGI (RPMI-8226 leukemia): 53 µM
TGI (BT-549 breast): 51.4 µM
TGI (PC-3 prostate): 38.2 µM
TGI (SK-MEL-2 melanoma): 41.2 µM

CN(C)CCNC(=O)c1nc([N+](=O)[O-])cn1C
TGI (OVCAR-5 ovarian): > 100 µM
TGI (HOP-62 NSCLC): > 100 µM
TGI (MOLT-4 leukemia): > 100 µM
TGI (NCI-H460 lung): > 100 µM
TGI (SN12C renal): > 100 µM
TGI (CAKI-1 renal): > 100 µM
TGI (RPMI-8226 leukemia): > 100 µM
TGI (BT-549 breast): > 100 µM
TGI (PC-3 prostate): > 100 µM
TGI (SK-MEL-2 melanoma): > 100 µM

C[C@@H]1COC(Nc2ccc3ncnc(Nc4ccc(OCc5nccs5)c(Cl)c4)c3c2)=N1
GI50 (OVCAR-5 ovarian): > 10 µM and 11.9 µM
TGI (OVCAR-5 ovarian): > 10 µM and 33.3 µM
GI50 (HOP-62 NSCLC): 6.8 µM and 7.18 µM
TGI (HOP-62 NSCLC): > 10 µM and 20.7 µM
GI50 (MOLT-4 leukemia): 3.38 µM and 2.87 µM
TGI (MOLT-4 leukemia): > 10 µM and 8.72 µM
GI50 (NCI-H460 lung): 8.17 µM and 8.76 µM
TGI (NCI-H460 lung): > 10 µM and 26.5 µM
GI50 (SN12C renal): 6.15 µM and 4.86 µM
TGI (SN12C renal): > 10 µM and 26 µM
GI50 (CAKI-1 renal): 2240 nM and 685 nM
TGI (CAKI-1 renal): > 10 µM and 15.1 µM
GI50 (RPMI-8226 leukemia): 3290 nM and 2560 nM
TGI (RPMI-8226 leukemia): > 10 µM and 11.1 µM
GI50 (BT-549 breast): 3.65 µM and 3.28 µM
TGI (BT-549 breast): > 10 µM and 12.4 µM
GI50 (PC-3 prostate): 3370 nM and 2980 nM
TGI (PC-3 prostate): > 10 µM and 13.2 µM
GI50 (SK-MEL-2 melanoma): 4.43 µM and 3.47 µM
TGI (SK-MEL-2 melanoma): > 10 µM and 11.1 µM

Cc1cc2nc3c4cccc(O)c4n(CCN(C)C)c3nc2cc1C
GI50 (OVCAR-5 ovarian): 2.97 µM
TGI (OVCAR-5 ovarian): 9.1 µM
GI50 (HOP-62 NSCLC): 1.88 µM
TGI (HOP-62 NSCLC): 7.53 µM
GI50 (MOLT-4 leukemia): 0.443 µM
TGI (MOLT-4 leukemia): 8.98 µM
GI50 (NCI-H460 lung): 0.818 µM
TGI (NCI-H460 lung): 6.13 µM
GI50 (SN12C renal): 2.28 µM
TGI (SN12C renal): 13.8 µM
GI50 (CAKI-1 renal): 1350 nM
TGI (CAKI-1 renal): 3.89 µM
GI50 (RPMI-8226 leukemia): 1360 nM
TGI (RPMI-8226 leukemia): 4.62 µM
GI50 (BT-549 breast): 5.38 µM
TGI (BT-549 breast): 32.8 µM
GI50 (PC-3 prostate): 1880 nM
TGI (PC-3 prostate): 12.8 µM
GI50 (SK-MEL-2 melanoma): 1.93 µM
TGI (SK-MEL-2 melanoma): 4.22 µM

CN(C)S(=O)(=O)c1ccc(Nc2ccc(O)c3c2C(=O)c2c([N+](=O)[O-])ccc(O)c2C3=O)cc1
TGI (OVCAR-5 ovarian): > 100 µM
TGI (HOP-62 NSCLC): > 100 µM
TGI (MOLT-4 leukemia): > 100 µM
TGI (NCI-H460 lung): > 100 µM
TGI (SN12C renal): > 100 µM
TGI (CAKI-1 renal): > 100 µM
TGI (RPMI-8226 leukemia): > 100 µM
TGI (BT-549 breast): > 100 µM
TGI (PC-3 prostate): > 100 µM
TGI (SK-MEL-2 melanoma): > 100 µM

CNCCOC(=O)/C=C1/CCC2C(C(O)CC3C(C)(C(=O)OC)CCCC23C)C1C (configuration not stated)
GI50 (OVCAR-5 ovarian): 0.0264 µM
TGI (OVCAR-5 ovarian): 0.0693 µM
GI50 (HOP-62 NSCLC): 0.013 µM
TGI (HOP-62 NSCLC): 0.0259 µM
GI50 (MOLT-4 leukemia): < 0.01 µM
TGI (MOLT-4 leukemia): 0.0203 µM
GI50 (NCI-H460 lung): < 0.01 µM
TGI (NCI-H460 lung): 0.019 µM
GI50 (SN12C renal): < 0.01 µM
TGI (SN12C renal): 0.112 µM
GI50 (CAKI-1 renal): 20.2 nM
TGI (CAKI-1 renal): 0.053 µM
GI50 (RPMI-8226 leukemia): 24.8 nM
TGI (RPMI-8226 leukemia): 0.0657 µM
GI50 (BT-549 breast): 0.0242 µM
TGI (BT-549 breast): 0.064 µM
GI50 (PC-3 prostate): 21.4 nM
TGI (PC-3 prostate): 0.202 µM
GI50 (SK-MEL-2 melanoma): 0.0317 µM
TGI (SK-MEL-2 melanoma): 0.0805 µM

O=C1C=CC(=O)c2c1ncc1c2nc2sccn21
GI50 (OVCAR-5 ovarian): 19.8 µM
TGI (OVCAR-5 ovarian): 40.1 µM
GI50 (HOP-62 NSCLC): 21.2 µM
TGI (HOP-62 NSCLC): 47.4 µM
GI50 (MOLT-4 leukemia): 3.57 µM
TGI (MOLT-4 leukemia): > 100 µM
GI50 (NCI-H460 lung): 27.2 µM
TGI (NCI-H460 lung): > 100 µM
GI50 (SN12C renal): 23.3 µM
TGI (SN12C renal): 48.3 µM
GI50 (CAKI-1 renal): 19500 nM
TGI (CAKI-1 renal): 42.5 µM
GI50 (RPMI-8226 leukemia): 12700 nM
TGI (RPMI-8226 leukemia): 47.4 µM
GI50 (BT-549 breast): 12.4 µM
TGI (BT-549 breast): 27.7 µM
GI50 (PC-3 prostate): 15200 nM
TGI (PC-3 prostate): 30.6 µM
GI50 (SK-MEL-2 melanoma): 42.8 µM
TGI (SK-MEL-2 melanoma): > 100 µM

COc1cc2c3c(n(C)c(=O)c2cc1OC)-c1cc2c(cc1/C3=C/[C@H](N)CCCCN)OCO2
GI50 (OVCAR-5 ovarian): 0.885 µM
TGI (OVCAR-5 ovarian): 5.65 µM
GI50 (HOP-62 NSCLC): 1.34 µM
TGI (HOP-62 NSCLC): 11.6 µM
TGI (MOLT-4 leukemia): > 100 µM
GI50 (NCI-H460 lung): 0.196 µM
TGI (NCI-H460 lung): 1.62 µM
GI50 (SN12C renal): 0.662 µM
TGI (SN12C renal): 6.39 µM
GI50 (CAKI-1 renal): 1230 nM
TGI (CAKI-1 renal): 11.5 µM
GI50 (RPMI-8226 leukemia): 1590 nM
TGI (RPMI-8226 leukemia): > 61.5 µM
TGI (BT-549 breast): 2.57 µM
GI50 (PC-3 prostate): 2000 nM
TGI (PC-3 prostate): 27.5 µM
GI50 (SK-MEL-2 melanoma): 2.68 µM
TGI (SK-MEL-2 melanoma): 8.98 µM

CCN1CCC(CC(=O)Nc2n[nH]c3nc(-c4cccs4)c(Br)cc23)CC1
GI50 (OVCAR-5 ovarian): 15.9 µM
TGI (OVCAR-5 ovarian): > 25 µM
GI50 (HOP-62 NSCLC): 10.6 µM
TGI (HOP-62 NSCLC): > 25 µM
GI50 (MOLT-4 leukemia): 9.07 µM
TGI (MOLT-4 leukemia): 24.5 µM
GI50 (NCI-H460 lung): 10.1 µM
TGI (NCI-H460 lung): > 25 µM
GI50 (SN12C renal): 9.51 µM
TGI (SN12C renal): > 25 µM
GI50 (CAKI-1 renal): 4290 nM
TGI (CAKI-1 renal): > 25 µM
GI50 (RPMI-8226 leukemia): 9420 nM
TGI (RPMI-8226 leukemia): 24.8 µM
GI50 (BT-549 breast): > 23 µM
TGI (BT-549 breast): > 25 µM
GI50 (PC-3 prostate): 10400 nM
TGI (PC-3 prostate): > 25 µM
GI50 (SK-MEL-2 melanoma): 6.24 µM
TGI (SK-MEL-2 melanoma): 11.4 µM

Cc1ccc2nc(N/N=C/c3cccc(C)n3)cc(C)c2c1
TGI (OVCAR-5 ovarian): 28.5 µM
TGI (HOP-62 NSCLC): 36.8 µM
TGI (NCI-H460 lung): 23.2 µM
TGI (SN12C renal): 34.2 µM
TGI (CAKI-1 renal): 31 µM
TGI (RPMI-8226 leukemia): 42.5 µM
TGI (BT-549 breast): 33.3 µM
TGI (PC-3 prostate): 37.2 µM
TGI (SK-MEL-2 melanoma): 34.8 µM

O=C1CC/C(=C\COc2ccc3ccc(=O)oc3c2)O1
GI50 (OVCAR-5 ovarian): 17.3 µM
TGI (OVCAR-5 ovarian): 34.8 µM
GI50 (HOP-62 NSCLC): 17.6 µM
TGI (HOP-62 NSCLC): 38.2 µM
GI50 (MOLT-4 leukemia): 6.41 µM
TGI (MOLT-4 leukemia): > 100 µM
GI50 (NCI-H460 lung): 16.8 µM
TGI (NCI-H460 lung): > 100 µM
GI50 (SN12C renal): 10.3 µM
TGI (SN12C renal): 28.8 µM
GI50 (CAKI-1 renal): 1970 nM
TGI (CAKI-1 renal): 20.6 µM
GI50 (RPMI-8226 leukemia): 1070 nM
TGI (RPMI-8226 leukemia): 17.3 µM
GI50 (BT-549 breast): 10.2 µM
TGI (BT-549 breast): 26.4 µM
GI50 (PC-3 prostate): 1680 nM
TGI (PC-3 prostate): 18.3 µM
GI50 (SK-MEL-2 melanoma): 10.9 µM
TGI (SK-MEL-2 melanoma): 36.8 µM

Cc1ccc(F)cc1NC(=O)c1cc(Cl)ccc1Nc1ccccc1
GI50 (OVCAR-5 ovarian): > 100 µM
TGI (OVCAR-5 ovarian): > 100 µM
GI50 (HOP-62 NSCLC): 79 µM
TGI (HOP-62 NSCLC): > 100 µM
GI50 (MOLT-4 leukemia): 37.9 µM
TGI (MOLT-4 leukemia): > 100 µM
GI50 (NCI-H460 lung): > 100 µM
TGI (NCI-H460 lung): > 100 µM
GI50 (SN12C renal): > 100 µM
TGI (SN12C renal): > 100 µM
GI50 (CAKI-1 renal): > 100000 nM
TGI (CAKI-1 renal): > 100 µM
GI50 (RPMI-8226 leukemia): 51200 nM
TGI (RPMI-8226 leukemia): > 100 µM
GI50 (BT-549 breast): > 100 µM
TGI (BT-549 breast): > 100 µM
GI50 (PC-3 prostate): > 100000 nM
TGI (PC-3 prostate): > 100 µM
GI50 (SK-MEL-2 melanoma): > 100 µM
TGI (SK-MEL-2 melanoma): > 100 µM

O=C(NC1(C(=O)O)CC1c1ccccc1)c1ccccc1 (configuration not stated)
TGI (OVCAR-5 ovarian): > 100 µM
TGI (HOP-62 NSCLC): > 100 µM
TGI (MOLT-4 leukemia): > 100 µM
TGI (NCI-H460 lung): > 100 µM
TGI (SN12C renal): > 100 µM
TGI (CAKI-1 renal): > 100 µM
TGI (RPMI-8226 leukemia): > 100 µM
TGI (BT-549 breast): > 100 µM
TGI (PC-3 prostate): > 100 µM
TGI (SK-MEL-2 melanoma): > 100 µM
